Experimental data published in patent US20230158151A1 (NURIX THERAPEUTICS, INC., priority 2021, published 2023).

Target: T1, ITK (Mus musculus, UniProt Q03526)
T1 construct: administered to mice orally; from tissue; host or cells: mouse splenocytes (spleen) after oral dosing
T1 sequence (Q03526 1-625): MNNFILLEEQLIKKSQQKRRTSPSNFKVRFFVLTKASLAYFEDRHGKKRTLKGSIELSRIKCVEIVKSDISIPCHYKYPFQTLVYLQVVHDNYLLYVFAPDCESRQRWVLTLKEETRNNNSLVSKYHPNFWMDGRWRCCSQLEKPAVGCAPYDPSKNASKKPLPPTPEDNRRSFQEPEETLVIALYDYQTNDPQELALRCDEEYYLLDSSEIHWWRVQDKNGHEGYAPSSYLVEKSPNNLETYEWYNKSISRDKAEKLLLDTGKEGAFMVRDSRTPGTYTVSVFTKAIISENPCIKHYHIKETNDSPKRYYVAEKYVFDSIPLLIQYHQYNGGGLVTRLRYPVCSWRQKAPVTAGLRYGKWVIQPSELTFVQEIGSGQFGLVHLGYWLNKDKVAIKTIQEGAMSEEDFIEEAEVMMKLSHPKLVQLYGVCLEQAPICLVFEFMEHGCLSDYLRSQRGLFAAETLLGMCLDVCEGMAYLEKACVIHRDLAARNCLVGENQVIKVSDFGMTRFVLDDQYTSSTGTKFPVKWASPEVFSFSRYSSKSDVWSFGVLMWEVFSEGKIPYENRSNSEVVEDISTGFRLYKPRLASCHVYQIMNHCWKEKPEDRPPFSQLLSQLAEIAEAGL
Test: Western Assay for ITK Degradation in Mouse Splenocytes after oral administration
Assay type: in vivo
Settings: % ITK remaining in mouse splenocytes
Experimental: Compounds 30 and 31 were administered to mice orally. After 6 hours, splenocytes cells were harvested. ITK was evaluated by Western blotting. Media was removed and cell pellets were lysed in 100 μL lysis buffer (RIPA buffer (Fisher, PI89901), cOmplete Mini EDTA-free protease inhibitor (Sigma 11836170001), Protease Inhibitor Cocktail (Sigma, P2714), Phosphatase Inhibitor Cocktail 2 and 3 (Sigma, P5726 and P0044), Benzonase (Sigma, E1014)). Cells were lysed overnight at −20° C. Following thaw, cells were centrifuged for 10 min at 13000 rpm, then transferred to new tube. Protein levels were determined by BCA Assay performed according to manufacturer's protocol (EMD Millipore, cat. no. 71285-3). Samples were combined with (4×) LDS Sample Buffer and (10×) Reducing Agent and H2O to equally load 20 μg protein per lane of a 26-well NuPAGE 4-12% Bis-Tris protein gel (1.0 mm, Thermo cat. no. NP0326). Samples were separated by running gels at constant 150 V in NuPAGE MES SDS Running Buffer. Following electrophoresis, proteins were transferred to nitrocellulose membranes using an iBlot Gel Transfer Device and iBlot Gel Transfer Stacks (Thermo cat. no. IB21001 and IB301001) and transfer method P3 (20V for 7 min). Membranes were blocked for 1 hr in 5% milk solution (TBS (0.2% Tween-20)). Following blocking, membranes were incubated with primary antibody (1:1000 CST ITK (2F12) #2380) overnight at 4° C. with gentle shaking. Blots were washed 2× in TBS (0.2% Tween-20), 30 min per wash. Following washes, blots were incubated in secondary HRP-conjugated antibody (Promega anti-Mouse IgG (H+L) HRP cat. no. W4021), 1:5000 in 5% milk solution (TBS (0.2% Tween-20)), for 1 hr at room temperature with gentle shaking. Blots were washed 2× in TBS (0.2% Tween-20), 30 min per wash. Blots were incubated with 1:1 mix of ECL reagents 1 & 2 (Amersham ECL Western Blotting Detection Reagent, cat. no. RPN2106) for 2 min at room temperature. Bands were visualized using a Protein Simple imager. Blots were then re-probed with a combination of anti-actin antibody (Sigma Monoclonal Mouse Anti-β-Actin (clone AC-15), cat. no. A5441) and secondary HRP-conjugated antibody (Promega anti-Mouse IgG (H+L) HRP, cat. no. W4021) and similar steps were taken for incubation, wash, detection and visualization steps as above. The data was analyzed using Alpha View software. The densitometric reading for each sample band was normalized to that of the corresponding actin band per lane. Approximate % ITK remaining per sample was calculated as follows: […]
Once % ITK remaining has been calculated for each sample, groups are averaged together to show an means % ITK normalized to actin and relative to control.
Compounds 30 and 29 were administered to mice orally. After 6 hours or 24 hours, splenocytes cells were harvested. ITK was evaluated by Western blotting. Plasma concentrations were determined by LC/MS/MS. Plasma samples were protein precipitated by addition of 100 μl of acetonitrile containing 50 ng/ml of internal standard. The resulting mixture was vortexed and centrifuged at 4000 RPM for 5 minutes. An aliquot of the resultant supernatant (75 μl) was added to 75 μl of 0.1% formic acid in water to constitute the final sample for injection. Samples were injected on a Shimadzu Exion LC Binary Gradient AD Pump HLPC system connected to a Sciex QTRAP 6500+ mass spectrometer. Five μl of sample was injected onto a Waters Acquity UPLC BEH C18 column 130A (2.1×30 mm, […]) at 40° C. utilizing a flow rate of 700 μl/minute. Mobile Phase A was 0.1% formic acid in water and mobile phase B was 0.1% formic acid in acetonitrile. A linear gradient of 15-95% B over 1.0 minute was used. The mass spectrometer was operated in positive ion electrospray mode with multiple reaction monitoring for maximum sensitivity. Sciex Analyst software (version 1.6.3) was used for LC/MS/MS instrument control and acquisition. […]

SMILES	ITK (%) 90 mpk PO, 6 h (90 mpk PO, 6 h) [%]	ITK (%) 90 mpk PO, 24 h (90 mpk PO, 24 h) [%]	ITK (%) 60 mpk PO, 24 h (60 mpk PO, 24 h) [%]
CC1(C)CCc2c(-c3cc4ccc(C(=O)N5CCN(CC6CCN(c7ccc(C8CCC(=O)NC8=O)cc7)CC6)CC5)cc4[nH]3)n[nH]c2C1 (stereo not drawn) [Compound 38, 3-(4-(4-((4-(2-(6,6-dimethyl-4,5,6,7-tetrahydro-1H-indazol-3-yl)-1H-indole-6-carbonyl)piperazin-1-yl)methyl)piperidin-1-yl)phenyl)piperidine-2,6-dione]	14	14	–
CC1(C)CCc2c(-c3cc4ccc(C(=O)N5CCC(CN6CCC(c7ccc(C8CCC(=O)NC8=O)cc7)CC6)CC5)cc4[nH]3)n[nH]c2C1 (stereo not drawn) [Compound 39, 3-(4-(1-((1-(2-(6,6-dimethyl-4,5,6,7-tetrahydro-1H-indazol-3-yl)-1H-indole-6-carbonyl)piperidin-4-yl)methyl)piperidin-4-yl)phenyl)piperidine-2,6-dione]	–	–	93
